Source: patent US20070128217A1 (priority 2003, published 2007)

Tests used:
[1] = tested on: antibodies in sera from SARS patients (sera 1a, 1b, 2, 6, 37, 62, London, SARS-yellow, SARS-green); format: binding, human; design: Binding of serum 6 to linear peptides of protein X1 of SARS-CoV Urbani / Binding of serum 37 to linear peptides of protein X1 of SARS-CoV Urbani / Binding of serum 6 to looped/cyclic peptide (PEPSCAN-ELISA) / Binding of serum 37 to looped/cyclic peptide (PEPSCAN-ELISA) / Binding of serum 37 to looped/cyclic peptides of protein X1 of SARS-CoV Urbani / Binding of serum 6 to linear peptides of protein X2 / Binding of serum 37 to linear peptides of protein X2 / Binding of serum 37 to looped/cyclic peptides of protein X2 of SARS-CoV Urbani / Binding of serum 6 to linear peptides of protein M of SARS-CoV Urbani / Binding of serum 37 to linear peptides of protein M of SARS-CoV Urbani / Binding of serum 6 to looped/cyclic peptides of protein M of SARS-CoV Urbani / Binding of serum 37 to looped/cyclic peptides of protein M of SARS-CoV Urbani / Binding of serum 6 to linear peptides of protein X3 of SARS-CoV Urbani / Binding of serum 37 to linear peptides of protein X3 of SARS-CoV Urbani / Binding of serum 37 to looped/cyclic peptides of protein X3 of SARS-CoV Urbani / Binding of serum 6 to linear peptides of protein X4 of SARS-CoV Urbani / Binding of serum 37 to linear peptides of protein X4 of SARS-CoV Urbani / Binding of serum 37 to looped/cyclic peptides of protein X4 of SARS-CoV Urbani / Binding of serum 6 to linear peptides of protein X5 of SARS-CoV Urbani / Binding of serum 37 to linear peptides of protein X5 of SARS-CoV Urbani / Binding of serum 37 to looped/cyclic peptides of protein X5 of SARS-CoV Urbani / Binding of serum 6 to linear peptides of protein N of SARS-CoV Urbani / Binding of serum 37 to linear peptides of protein N of SARS-CoV Urbani / Binding of serum 6 to linear peptide (PEPSCAN-ELISA) / Binding of serum 1a to looped/cyclic peptides of protein N of SARS-CoV Urbani / Binding of serum 1b to looped/cyclic peptides of protein N of SARS-CoV Urbani / Binding of serum 2 to looped/cyclic peptides of protein N of SARS-CoV Urbani / Binding of serum 6 to looped/cyclic peptides of protein N of SARS-CoV Urbani / Binding of serum 37 to looped/cyclic peptides of protein N of SARS-CoV Urbani / Binding of serum 62 to looped/cyclic peptides of protein N of SARS-CoV Urbani / Binding of serum London to looped/cyclic peptides of protein N of SARS-CoV Urbani / Binding of serum SARS-green to looped/cyclic peptides of protein N of SARS-CoV Urbani: unit not given here
[2] = tested on: control sera (pooled serum of ten healthy LUMC hospital workers; commercial negative donor pooled serum from the Dutch bloodbank); format: binding, human; design: Binding of Control serum LUMC to linear peptides / Binding of Control serum Blood-bank to linear peptides / Binding of Control serum LUMC to looped peptides / Binding of Control Serum Blood-Bank to Looped peptides / Binding of Control serum LUMC to linear peptides of the protein M of SARS-CoV Urbani / Binding of Control serum Blood-bank to linear peptides of the protein M of SARS-CoV Urbani / Binding of Control serum LUMC to looped peptides of the protein M of SARS-CoV Urbani / Binding of Control Serum Blood-Bank to Looped peptides of the protein M of SARS-CoV Urbani: unit not given here
[3] = tested on: rabbit serum obtained by immunizing a rabbit with the SARS-CoV strain Frankfurt 1; format: binding; design: Binding of a rabbit serum to linear peptides / Binding of a rabbit serum to looped peptides / Rabbit serum linear peptides / Rabbit serum looped peptides / Binding of a rabbit serum to linear peptides of protein N of SARS-CoV Urbani (Rabbit serum linear peptides) / Binding of a rabbit serum to looped/cyclic peptides of protein N of SARS-CoV Urbani (Rabbit serum looped peptides): unit not given here

Row | Sequence | Binding of Control Serum Blood-Bank to Looped peptides [2] | Binding of Control serum Blood-bank to linear peptides [2] | Binding of Control serum LUMC to linear peptides [2] | Binding of Control serum LUMC to looped peptides [2] | Binding of serum 1a to linear peptides of protein X2 [1] | Binding of serum 1a to looped/cyclic peptides of protein X2 of SARS-CoV Urbani [1] | Binding of serum 1b to linear peptides of protein X2 [1] | Binding of serum 1b to looped/cyclic peptides of protein X2 of SARS-CoV Urbani [1] | Binding of serum 2 to linear peptides of protein X2 [1] | Binding of serum 2 to looped/cyclic peptides of protein X2 of SARS-CoV Urbani [1] | Binding of serum 6 to linear peptides of protein X2 [1] | Binding of serum 6 to looped/cyclic peptides of protein X2 of SARS-CoV Urbani [1] | Binding of serum 37 to linear peptides of protein X2 [1] | Binding of serum 37 to looped/cyclic peptides of protein X2 of SARS-CoV Urbani [1] | Binding of serum 62 to linear peptides of protein X2 [1] | Binding of serum 62 to looped/cyclic peptides of protein X2 of SARS-CoV Urbani [1] | Binding of serum London to linear peptides of protein X2 [1] | Binding of serum London to looped/cyclic peptides of protein X2 of SARS-CoV Urbani [1] | Binding of serum SARS-green to linear peptides of protein X2 [1] | Binding of serum SARS-green to looped/cyclic peptides of protein X2 of SARS-CoV Urbani [1] | other results
1 | TLIVFTSCELYHYQE | 0.7 | 0.7 | 0.8 | 1.0 |  |  |  |  |  |  |  |  |  |  |  |  |  |  |  |  | Binding of serum 1a to linear peptides of protein X4 of SARS-CoV Urbani [1]: 0.8; Binding of serum 1a to looped/cyclic peptides of protein X4 of SARS-CoV Urbani [1]: 0.8; Binding of serum 1b to linear peptides of protein X4 of SARS-CoV Urbani [1]: 0.8; Binding of serum 1b to looped/cyclic peptides of protein X4 of SARS-CoV Urbani [1]: 0.8; Binding of serum 2 to linear peptides of protein X4 of SARS-CoV Urbani [1]: 0.5; Binding of serum 2 to looped/cyclic peptides of protein X4 of SARS-CoV Urbani [1]: 0.8; Binding of serum 6 to linear peptides of protein X4 of SARS-CoV Urbani [1]: 0.6; Binding of serum 6 to looped/cyclic peptides of protein X4 of SARS-CoV Urbani [1]: 0.6; Binding of serum 37 to linear peptides of protein X4 of SARS-CoV Urbani [1]: 0.9; Binding of serum 37 to looped/cyclic peptides of protein X4 of SARS-CoV Urbani [1]: 0.9; Binding of serum 62 to linear peptides of protein X4 of SARS-CoV Urbani [1]: 0.9; Binding of serum 62 to looped/cyclic peptides of protein X4 of SARS-CoV Urbani [1]: 0.8; Binding of serum London to linear peptides of protein X4 of SARS-CoV Urbani [1]: 0.8; Binding of serum London to looped/cyclic peptides of protein X4 of SARS-CoV Urbani [1]: 0.3; Binding of serum SARS-green to linear peptides of protein X4 of SARS-CoV Urbani [1]: 1.1; Binding of serum SARS-green to looped/cyclic peptides of protein X4 of SARS-CoV Urbani [1]: 1.0; Binding of serum SARS-yellow to linear peptides of protein X4 of SARS-CoV Urbani [1]: 0.6; Binding of serum SARS-yellow to looped/cyclic peptides of protein X4 of SARS-CoV Urbani [1]: 0.9; Rabbit serum linear peptides [3]: 0.5; Rabbit serum looped peptides [3]: 0.8
2 | TLVLKMLHSSSLTSL | 0.9 | 0.9 | 0.5 | 0.7 | 0.7 | 0.7 | 0.5 | 0.6 | 0.4 | 0.5 | 0.4 | 1.0 | 0.5 | 0.5 | 0.6 | 0.7 | 0.4 | 1.0 | 0.4 | 0.3 | Binding of serum SARS-yellow to linear peptides of protein X2 [1]: 0.4; Binding of serum SARS-yellow to looped/cyclic peptides of protein X2 of SARS-CoV Urbani [1]: 0.5; Binding of a rabbit serum to linear peptides [3]: 0.2; Binding of a rabbit serum to looped peptides [3]: 0.4
3 | TMSLYMAISPKFTTS | 0.8 | 0.5 | 0.7 | 0.8 | 0.5 | 0.6 | 0.0 | 0.6 | 0.4 | 0.4 | 0.3 | 0.4 | 0.2 | 0.5 | 0.7 | 0.7 | 0.4 | 0.2 | 0.5 | 0.4 | Binding of serum SARS-yellow to linear peptides of protein X2 [1]: 0.0; Binding of serum SARS-yellow to looped/cyclic peptides of protein X2 of SARS-CoV Urbani [1]: 0.6; Binding of a rabbit serum to linear peptides [3]: 0.2; Binding of a rabbit serum to looped peptides [3]: 0.5
4 | TMTTVYHITVSQIQL | 0.6 | 0.6 | 0.8 | 0.5 | 0.6 | 0.4 | 0.2 | 0.4 | 0.4 | 0.3 | 0.5 | 0.2 | 0.7 | 0.4 | 0.3 | 0.5 | 0.4 | 0.2 | 0.2 | 0.3 | Binding of serum SARS-yellow to linear peptides of protein X2 [1]: 0.7; Binding of serum SARS-yellow to looped/cyclic peptides of protein X2 of SARS-CoV Urbani [1]: 0.3; Binding of a rabbit serum to linear peptides [3]: 0.7; Binding of a rabbit serum to looped peptides [3]: 0.4
